Data reported in US12594282B2, “Use of small molecule compounds in the treatment of diseases mediated by lung epithelial cell injury and/or vascular endothelial cell injury” (Guangzhou Cellprotek Pharmaceutical Co., Ltd., priority 2020, dated 2026).

System: NR4A3
Test: NR4A3 protein expression under OGD-R, HUVEC (Western blot, immunofluorescence)
Format: cell-based, human
Details: OGD 4 hours, restoration 24 hours, 1, 3, 10 μM given at restoration
Description: HUVEC cells were cultured in modified DMEM medium containing 10% fetal bovine serum. When the cells reached about 80% confluence, the cells were digested with 0.25% trypsin, and then pipetted evenly with modified DMEM containing 10% […]. The cell concentration was adjusted to 1×10^5 cells/mL, and the cells were seeded at 400 uL/well in a 24-well plate, and the experiment was carried out when the cells grew to about 70% confluence. RAOEC cells were cultured in high-glucose DMEM medium containing 10% fetal bovine serum, and the seeding conditions were the same as those of HUVEC. During the OGD-R injury treatment, the hypoxia workstation was set to have an oxygen concentration of 1% (1% O2, 5% CO2, 94% N2), a temperature of 37° C., and a humidity of 85%. A sugar-free DMEM medium was placed in the hypoxia workstation for pre-hypoxia for 3 hours. The medium in the culture plate was aspirated, and the plate was washed twice with preheated sugar-free DMEM medium, and 100 uL of sugar-free DMEM medium was added to each well. The culture plate was placed in the hypoxia workstation, and 300 uL of pre-hypoxic sugar-free DMEM medium was added to each well, and then the culture plate was placed in the hypoxia workstation for additional hypoxia for 4 hours. Restoration was then performed. The culture plate was taken out, and the sugar-free DMEM medium was replaced with 400 uL of normal medium containing 10% fetal bovine serum, and then the plate was placed in a 37° C. 5% CO2 cell incubator for culturing for 24 hours or a specified time period. For the cells in the normal group, it was only replaced with 400 uL of new normal medium containing 10% fetal bovine serum. […]
The cells were washed twice with pre-cooled PBS, then scraped off with a cell scraper and transferred to a 1.5 mL centrifuge tube, and centrifugation was performed at 4° C. and 1000 g for 5 minutes. […] Each protein sample was then quantified using the BCA protein quantification kit. After protein quantification, protein lysis buffer was used to adjust the protein concentration of each sample to be consistent with the protein sample with the lowest concentration, and then each protein sample was sufficiently mixed with 5× protein loading buffer at a ratio of 4:1. […]

In the case of `C[C@@]12CCCC1C1C[C@@H](O)[C@]3(O)C[C@@H](O)CC[C@]3(C)C1CC2` (stereo partly drawn) [YC-6, 5α-androst-3β,5,6β-triol], the NR4A3 protein expression is reported as “dose-dependently increase the protein expression of NR4A3”.
